Measured values reported in patent US9062066B2, “Anti-inflammatory compound having inhibitory activity against multiple tyrosine kinases and pharmaceutical composition containing same” (KOREA INSTITUTE OF SCIENCE AND TECHNOLOGY, priority 2010, dated 2015).

How the values were obtained:
[1] = test system: NO synthesis in J744A.1 macrophage; assay: inhibition of nitric oxide (NO) synthesis in LPS-activated macrophages (Griess reagent); format: cell-based; conditions: 24 h, read-out: Inhibition (%) of NO synthesis
Lyn tyrosine kinase = Lyn tyrosine kinase (Homo sapiens (Human), UniProt P07948); assay: in vitro Lyn tyrosine kinase inhibition; format: biochemical; conditions: 1 uM compound; read-out: % inhibition against Lyn
[2] = test system: TNF-α synthesis in J744A.1 macrophages; assay: inhibition of TNF-α synthesis in LPS-activated macrophages (ELISA); format: cell-based; conditions: Macrophage, 6 h, read-out: Inhibition (%) of TNF-α synthesis
Fgr tyrosine kinase = Fgr tyrosine kinase (Homo sapiens (Human), UniProt P09769); assay: in vitro Fgr tyrosine kinase inhibition; format: biochemical; conditions: 1 uM compound; read-out: % inhibition against Fgr
mouse skin fibroblast = assay: inhibition of migration of activated fibroblast (scratch wound); format: cell-based; conditions: 0.5 uM compound, 10 ng/ml TGF-β1, 24 hours, read-out: Inhibition (%) of migration of activated fibroblast
In short: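 Scratch wound was made on a fibroblast monolayer, then cells were kept in DMEM with 10 ng/ml TGF-β1 at 37° C for 24 hours. After formalin fixation and crystal violet staining, cells that had moved into the wound were counted at 100× in five random fields and averaged.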

DDR1 tyrosine kinase = DDR1 tyrosine kinase (Homo sapiens (Human), UniProt Q08345); assay: in vitro DDR1 tyrosine kinase inhibition (GST-fused kinase domain); format: biochemical; conditions: 1 uM compound; read-out: % inhibition against DDR1
Hck tyrosine kinase = Hck tyrosine kinase (Homo sapiens (Human), UniProt P08631); assay: in vitro Hck tyrosine kinase inhibition; format: biochemical; conditions: 1 uM compound; read-out: % inhibition against Hck
[3] = test system: oxazolone-induced skin inflammation of Balb/C mouse ears; assay: mouse skin inflammatory model induced by oxazolone (ear thickness); format: in vivo; conditions: 20 ul of 0.1% compound topical on ear, 36 hours after oxazolone
In short: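 Oxazolone was used to induce skin inflammation in the ears of 8-week-old Balb/C mice. Ear thickness was measured by caliper before induction, again at 36 h to capture inflammatory swelling, and averaged per group (n=4).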

DDR2 tyrosine kinase = DDR2 tyrosine kinase (Homo sapiens (Human), UniProt Q16832); assay: in vitro DDR2 tyrosine kinase inhibition (GST-fused kinase domain); format: biochemical; conditions: 1 uM compound; read-out: % inhibition against DDR2
[4] = test system: α-smooth muscle actin protein expression in skin fibroblast cells; assay: inhibition of α-smooth muscle actin expression in fibroblast activated by type I collagen and TGF-β1 (western blotting); format: cell-based, Balb/C mouse; conditions: Mus musculus, 0.5 uM compound, 10 ng/ml TGF-β1, 48 hours, type I collagen, read-out: Inhibition (%) of α-smooth muscle actin increase
In short: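 α-Smooth muscle actin protein was detected by western blotting with chemiluminescence on X-ray film. Levels were quantified by densitometry of the band.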

c-Src tyrosine kinase = c-Src tyrosine kinase (Homo sapiens (Human), UniProt P12931); assay: in vitro c-Src tyrosine kinase inhibition (32P-ATP, poly(D4Y)n substrate); format: biochemical; conditions: 1 uM compound; read-out: % inhibition against c-Src
Sequence of c-Src tyrosine kinase (P12931 whole entry, looked up): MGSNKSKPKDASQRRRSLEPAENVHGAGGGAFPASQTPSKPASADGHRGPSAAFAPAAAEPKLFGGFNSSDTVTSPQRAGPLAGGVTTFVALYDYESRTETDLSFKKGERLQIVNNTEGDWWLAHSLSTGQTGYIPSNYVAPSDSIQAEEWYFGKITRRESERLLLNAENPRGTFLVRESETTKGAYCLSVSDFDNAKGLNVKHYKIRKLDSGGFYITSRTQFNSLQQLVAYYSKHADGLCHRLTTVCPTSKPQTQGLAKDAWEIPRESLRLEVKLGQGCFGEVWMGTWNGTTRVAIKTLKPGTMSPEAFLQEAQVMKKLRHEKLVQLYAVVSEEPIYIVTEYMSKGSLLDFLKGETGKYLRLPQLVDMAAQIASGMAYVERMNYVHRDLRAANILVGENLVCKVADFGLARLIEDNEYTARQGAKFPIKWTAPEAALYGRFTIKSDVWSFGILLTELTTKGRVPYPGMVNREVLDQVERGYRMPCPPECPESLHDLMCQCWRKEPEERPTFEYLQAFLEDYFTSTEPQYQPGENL

Sequence of DDR2 tyrosine kinase (Q16832 563-849): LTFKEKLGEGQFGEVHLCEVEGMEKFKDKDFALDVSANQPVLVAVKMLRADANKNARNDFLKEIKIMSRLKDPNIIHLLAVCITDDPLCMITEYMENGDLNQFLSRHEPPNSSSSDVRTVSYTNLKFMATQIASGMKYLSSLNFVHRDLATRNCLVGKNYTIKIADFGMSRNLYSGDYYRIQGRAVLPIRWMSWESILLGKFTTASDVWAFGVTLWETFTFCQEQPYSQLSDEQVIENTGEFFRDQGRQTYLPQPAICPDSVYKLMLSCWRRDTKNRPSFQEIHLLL
Sequence of Hck tyrosine kinase (P08631 whole entry): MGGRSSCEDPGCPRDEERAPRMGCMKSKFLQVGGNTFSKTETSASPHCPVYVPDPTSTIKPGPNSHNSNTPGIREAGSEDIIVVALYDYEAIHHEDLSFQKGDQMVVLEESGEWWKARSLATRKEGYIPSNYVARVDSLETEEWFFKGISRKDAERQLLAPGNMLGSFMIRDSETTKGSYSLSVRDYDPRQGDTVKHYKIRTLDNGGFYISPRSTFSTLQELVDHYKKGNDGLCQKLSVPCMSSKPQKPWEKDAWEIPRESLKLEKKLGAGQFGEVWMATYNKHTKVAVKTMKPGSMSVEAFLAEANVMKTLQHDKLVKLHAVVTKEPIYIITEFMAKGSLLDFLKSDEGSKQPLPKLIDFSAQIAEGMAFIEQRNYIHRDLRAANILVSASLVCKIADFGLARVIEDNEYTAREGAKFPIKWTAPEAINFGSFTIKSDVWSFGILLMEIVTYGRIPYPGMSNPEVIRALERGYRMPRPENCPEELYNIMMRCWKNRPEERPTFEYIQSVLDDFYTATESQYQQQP
Sequence of Lyn tyrosine kinase (P07948 whole entry): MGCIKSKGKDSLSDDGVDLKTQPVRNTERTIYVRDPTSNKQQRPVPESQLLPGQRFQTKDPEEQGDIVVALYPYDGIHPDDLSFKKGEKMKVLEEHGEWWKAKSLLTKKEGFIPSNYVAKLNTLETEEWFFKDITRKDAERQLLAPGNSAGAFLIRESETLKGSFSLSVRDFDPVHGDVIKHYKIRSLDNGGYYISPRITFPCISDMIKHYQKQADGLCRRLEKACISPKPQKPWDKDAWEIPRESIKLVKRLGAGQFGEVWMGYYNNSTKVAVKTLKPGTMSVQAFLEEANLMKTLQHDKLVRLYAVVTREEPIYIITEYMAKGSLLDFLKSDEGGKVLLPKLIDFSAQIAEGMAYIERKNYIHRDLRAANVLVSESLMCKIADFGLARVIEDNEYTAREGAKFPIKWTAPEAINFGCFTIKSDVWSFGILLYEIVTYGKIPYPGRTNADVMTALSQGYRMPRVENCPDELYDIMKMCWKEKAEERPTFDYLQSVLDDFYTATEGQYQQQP
Sequence of Fgr tyrosine kinase (P09769 whole entry): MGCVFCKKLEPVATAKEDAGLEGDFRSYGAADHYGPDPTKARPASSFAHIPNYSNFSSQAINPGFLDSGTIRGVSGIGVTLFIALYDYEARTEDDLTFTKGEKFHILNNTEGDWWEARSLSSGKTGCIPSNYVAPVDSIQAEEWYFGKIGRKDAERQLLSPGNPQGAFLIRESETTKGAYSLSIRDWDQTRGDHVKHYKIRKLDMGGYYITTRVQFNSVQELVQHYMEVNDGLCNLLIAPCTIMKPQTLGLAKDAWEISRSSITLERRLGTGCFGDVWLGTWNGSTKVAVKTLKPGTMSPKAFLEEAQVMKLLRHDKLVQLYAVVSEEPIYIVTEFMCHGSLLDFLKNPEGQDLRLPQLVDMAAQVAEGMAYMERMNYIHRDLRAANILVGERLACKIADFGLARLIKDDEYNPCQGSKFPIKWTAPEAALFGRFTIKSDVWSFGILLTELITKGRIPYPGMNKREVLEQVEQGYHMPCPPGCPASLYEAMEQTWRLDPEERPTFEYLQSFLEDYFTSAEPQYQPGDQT
Sequence of DDR1 tyrosine kinase (Q08345 610-905): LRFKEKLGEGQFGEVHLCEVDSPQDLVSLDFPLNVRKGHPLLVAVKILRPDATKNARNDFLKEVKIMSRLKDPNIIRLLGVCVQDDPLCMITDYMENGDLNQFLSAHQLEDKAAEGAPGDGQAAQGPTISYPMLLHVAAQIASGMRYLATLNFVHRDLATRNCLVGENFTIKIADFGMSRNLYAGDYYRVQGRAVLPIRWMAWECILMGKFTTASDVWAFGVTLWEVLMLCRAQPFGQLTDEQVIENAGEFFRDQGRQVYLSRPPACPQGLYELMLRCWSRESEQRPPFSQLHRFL

| SMILES | inhibition at 10 µM [1] [%] | inhibition at 1 µM (Lyn tyrosine kinase) [%] | inhibition at 10 µM [2] [%] | inhibition at 1 µM (Fgr tyrosine kinase) [%] | inhibition at 0.5 µM (mouse skin fibroblast) [%] | inhibition at 1 µM (DDR1 tyrosine kinase) [%] | inhibition at 1 µM (Hck tyrosine kinase) [%] | Inhibition (%) of increase of ear thickness [3] [%] | inhibition at 1 µM (DDR2 tyrosine kinase) [%] | inhibition at 0.5 µM [4] [%] | inhibition at 1 µM (c-Src tyrosine kinase) [%] |
| --- | --- | --- | --- | --- | --- | --- | --- | --- | --- | --- | --- |
| Oc1cccc(Nc2ncnc3cc(-c4ccc(CN5CCCC5)s4)sc23)c1 [LCB 03-0085, 3-(6-(5-(pyrrolidin-1-ylmethyl)thiophene-2-yl)thieno[3,2-d]pyrimidin-4-ylamino)phenol] | 93 | > 70 | 74 | > 70 | 35 | > 80 | > 70 | 53 | > 80 | 51 | > 70 |
| Oc1cccc(Nc2ncnc3cc(-c4ccc(CN5CCCC5)o4)sc23)c1 [LCB 03-0086, 3-(6-(5-(pyrrolidin-1-ylmethyl)furan-2-yl)thieno[3,2-d]pyrimidin-4-ylamino)phenol] | 72 | > 70 | 68 | > 70 | 21 | > 80 | > 70 | 48 | > 80 | 33 | > 70 |
| CN1CCN(Cc2ccc(-c3cc4ncnc(Nc5cccc(O)c5)c4s3)o2)CC1 [LCB 03-0087, 3-(6-(5-((4-methylpiperazin-1-yl)methyl)furan-2-yl)thieno[3,2-d]pyrimidin-4-ylamino)phenol] | 83 | > 70 | 68 | > 70 | 24 | > 70 | > 70 | 43 | > 70 | 29 | > 70 |
| Oc1cccc(Nc2ncnc3cc(-c4ccc(CN5CCCCC5)o4)sc23)c1 [LCB 03-0088, 3-(6-(5-(piperidin-1-ylmethyl)furan-2-yl)thieno[3,2-d]pyrimidin-4-ylamino)phenol] | 97 | > 70 | 73 | > 70 | 27 | > 90 | > 70 | 51 | > 90 | 52 | > 70 |
| Oc1cccc(Nc2ncnc3cc(-c4ccc(CN5CCOCC5)o4)sc23)c1 [LCB 03-0089, 3-(6-(5-(morpholinomethyl)furan-2-yl)thieno[3,2-d]pyrimidin-4-ylamino)phenol] | 86 | > 70 | 71 | > 70 | 19 | > 70 | > 70 | 59 | > 70 | 25 | > 70 |
| Oc1cccc(Nc2ncnc3cc(-c4ccc(CN5CCNCC5)o4)sc23)c1 [LCB 03-0090, 3-(6-(5-(piperazin-1-ylmethyl)furan-2-yl)thieno[3,2-d]pyrimidin-4-ylamino)phenol] | 90 | > 70 | 63 | > 70 | 26 | > 70 | > 70 | 56 | > 70 | 44 | > 70 |
| CCNCc1ccc(-c2cc3ncnc(Nc4cccc(O)c4)c3s2)o1 [LCB 03-0091, 3-(6-(5-((ethylamino)methyl)furan-2-yl)thieno[3,2-d]pyrimidin-4-ylamino)phenol] | 92 | > 70 | 68 | > 70 | 39 | > 70 | > 70 | 49 | > 70 | 39 | > 70 |
| CN1CCN(Cc2ccc(-c3cc4ncnc(Nc5cccc(O)c5)c4s3)s2)CC1 [LCB 03-0092, 3-(6-(5-((4-methylpiperazin-1-yl)methyl)thiophene-2-yl)thieno[3,2-d]pyrimidin-4-ylamino)phenol] | 90 | > 60 | 64 | > 50 | 28 | > 80 | > 60 | 47 | > 80 | 37 | > 60 |
| Oc1cccc(Nc2ncnc3cc(-c4ccc(CN5CCCCC5)s4)sc23)c1 [LCB 03-0093, 3-(6-(5-(piperidin-1-ylmethyl)thiophene-2-yl)thieno[3,2-d]pyrimidin-4-ylamino)phenol] | 79 | > 60 | 53 | > 60 | 31 | > 80 | > 60 | 51 | > 80 | 43 | > 60 |
| Oc1cccc(Nc2ncnc3cc(-c4ccc(CN5CCNCC5)s4)sc23)c1 [LCB 03-0094, 3-(6-(5-(piperazin-1-ylmethyl)thiophene-2-yl)thieno[3,2-d]pyrimidin-4-ylamino)phenol] | 77 | > 60 | 56 | > 60 | 29 | > 80 | > 60 | 49 | > 80 | 41 | > 60 |
| Oc1cccc(Nc2ccnc3cc(-c4cccc(CN5CCCC5)c4)sc23)c1 [LCB 03-0107, 3-(2-(3-(pyrrolidin-1-ylmethyl)phenyl)thieno[3,2-b]pyridin-7-ylamino)phenol] | 81 | > 70 | 45 | > 70 | 58 | > 80 | > 70 | 59 | > 80 | 71 | > 70 |
| CN1CCN(Cc2cccc(-c3cc4nccc(Nc5cccc(O)c5)c4s3)c2)CC1 [LCB 03-0108, 3-(2-(3-((4-methylpiperazin-1-yl)methyl)phenyl)thieno[3,2-b]pyridin-7-ylamino)phenol] | 92 | > 80 | 53 | > 80 | 56 | > 80 | > 80 | 63 | > 80 | 75 | > 80 |
| Oc1cccc(Nc2ccnc3cc(-c4cccc(CN5CCCCC5)c4)sc23)c1 [LCB 03-0109, 3-(2-(3-(piperidin-1-ylmethyl)phenyl)thieno[3,2-b]pyridin-7-ylamino)phenol] | 90 | > 70 | 56 | > 70 | 48 | > 80 | > 70 | 52 | > 80 | 67 | > 70 |
| Oc1cccc(Nc2ccnc3cc(-c4cccc(CN5CCNCC5)c4)sc23)c1 [LCB 03-0111, 3-(2-(3-(piperazin-1-ylmethyl)phenyl)thieno[3,2-b]pyridin-7-ylamino)phenol] | 92 | > 80 | 57 | > 80 | 58 | > 90 | > 80 | 71 | > 90 | 79 | > 80 |
| CCNCc1cccc(-c2cc3nccc(Nc4cccc(O)c4)c3s2)c1 [LCB 03-0112, 3-(2-(3-((ethylamino)methyl)phenyl)thieno[3,2-b]pyridin-7-ylamino)phenol] | 81 | > 80 | 46 | > 80 | 38 | > 80 | > 80 | 68 | > 80 | 71 | > 80 |
